Key:
[1] = test system: human low density lipoprotein (LDL); assay: CuCl2-catalyzed oxidation of LDL suspension, fluorescence spectrophotometry; type: biochemical; conditions: LDL 200 μg/mL, CuCl2 300 μmol/L, 15 hours, SNAC 300 μmol/L, pH 7.4
Protocol: For this example, approximately 15 mL of a human low density lipoprotein (LDL) suspension at a concentration of around 200 μg/mL, in phosphate buffer, pH 7.4, aerated PBS (in vitro) were previously prepared and initially divided into three parts. A first part (a) with approximately 5 mL consisting of the previously prepared suspension solely; a second part (b) with approximately 5 mL, consisting of the LDL suspension incubated in a CuCl2 solution at a preferential concentration of 300 μmol/L for a period of around 15 hours; and a third part (c) with approximately 5 mL, consisting of the LDL suspension incubated in a CuCl2 solution at a preferential concentration of 300 μmol/L for a period of around 15 hours, in the presence of SNAC at a preferential concentration of 300 μmol/L.
A sample of each part was submitted to fluorescence spectrophotometry. FIG. 2 features the emission spectrum for the analyzed samples. […] The 410- and 440-nm emission peaks in the LDL suspension fluorescence spectrum correspond to the formation of a Schiff base adduct between the lipid oxidation products contained in the LDL particles (mainly the malondialdehyde [MDA]) and the free amino groups on LDL apolipoprotein (mainly apo-B-100), and are known as LDL oxidation markers.

[2] = test system: soy lipoxigenase (SLO); assay: Linoleic acid (LA) peroxidation catalyzed by soy lipoxigenase, absorbance at 234 nm; type: biochemical
Protocol: This referred effect may be shown by the analysis of two kinetic parameters: initial velocity and extension of the peroxidation reaction until the chemical equilibrium is reached. Such parameters were analyzed by ultraviolet spectrophotometry and the kinetic curves (a′, b′, c′ and d′) were obtained from absorbance variation monitored though the band with peak at 234 nm at a preferential temperature of 37° C. This band value is characteristic for combined dienes and may, therefore, act as LA peroxidation marker. For this Example, the first curve (a′) refers to a sample of linoleic acid whose peroxidation was catalyzed by incubation with soy lipo-oxygenase at a preferential concentration of 0.056 μmol/L; the second curve (b′) refers to a sample of linoleic acid whose peroxidation was catalyzed by incubation of the linoleic acid with a mixture of soy lipo-oxygenase in the presence of NAC at a preferential concentration of 560 μmol/L; the third curve (c′) refers to a sample of linoleic acid whose peroxidation was catalyzed by incubation of soy Lipo-oxygenase in the presence of SNAC at a preferential concentration of 56 μmol/L; and the fourth curve (d′) refers to a sample of linoleic acid whose peroxidation was catalyzed by incubation of soy lipo-oxygenase in the presence of SNAC at a preferential concentration of 560 μmol/L. FIG. 3 illustrates the absorbance curves obtained for the groups of the present Example. The interpretation of the curves is given by the initial velocity, which corresponds to the inclination of the initial section of the curves within approximately 10 seconds, and the extension of the reaction, which corresponds to the absorbance values on the plateaus of the curves.

[3] = test system: ob/ob mice; assay: Liver histology (hematoxylin and eosin) of ob/ob mice on MCD or hyperlipidemic diet; type: in vivo
From the text: For the Example 4, ob/ob mice were selected. A first group of mice was fed a methionine/choline-deficient diet (Group MCD) and a second group of mice was fed a hyperlipidemic diet (Group H).
Animals were selected from both groups and hematoxylin and eosin-stained histological sections of the hepatic tissue of these animals were obtained and examined under optical microscopy.
Other animals selected from both groups of mice, Group MCD and Group H, were submitted to a 30-day treatment consisting of SNAC administration. After the 30th day, hematoxylin and eosin-stained histological sections of the hepatic tissue of these animals were obtained and examined under optical microscopy.
The remaining animals in Groups H and MCD were maintained on these diets up the 60th day and were put on SNAC administration from the 31st day on. After the 60th day of treatment, hematoxylin and eosin-stained histological sections of the hepatic tissue of these animals were obtained and examined under optical microscopy.

[4] = test system: Wistar rats with hepatic steatosis induced by a choline-deficient diet; assay: Hydroperoxide (LOOH) concentration in the liver of rats with diet-induced hepatic steatosis; type: in vivo; conditions: control group 3.2±0.4
Protocol: Wistar rats with hepatic steatosis induced by a choline-deficient diet were assigned to three groups to perform the tests with the administration of S-nitroso-N-acetylcysteine (SNAC), which is one of the active principles of the present invention, and to evaluate the concentration of hydroperoxides (LOOH) in the liver.
A first group of animals, group 1, was treated with a solution of S-nitroso-N-acetylcysteine, which was administrated orally to the animals at a dose of 1.4 mg/kg/day. A second group of animals, group 2, was treated with N-acetylcysteine (NAC), which was also administrated orally to the animals at a dose of 7.0 mg/kg/day.

[5] = test system: Rats fed a choline-deficient diet; assay: Liver histology (hematoxylin and eosin) of rats fed a choline-deficient diet; type: in vivo; conditions: control: moderate macrovacuolar and microvacuolar steatosis in the periportal zone
From the text: Rats fed a choline-deficient diet were selected to compose the Control Group when compared to SNAC-treated rats. Hematoxylin and eosin-stained histological sections of hepatic tissue were examined under optical microscopy, as shown on FIGS. 5A and 5B.

[6] = Body mass variation of animals on MCD or hyperlipidemic diet; type: in vivo; conditions: SNAC by gavage, four weeks
From the text: Data are expressed as means±standard deviation.

[7] = SNAC 56 μmol/L, reduction compared with NAC 560 μmol/L, curve c′
[8] = NAC 560 μmol/L, LA 18.76 μmol/L, SLO 0.056 μmol/L, 37° C., curve b′

| SMILES | 410 and 440 nm emission peaks (LDL oxidation markers) [1] | extension of the LA peroxidation reaction [2, 7] | initial velocity of the LA peroxidation reaction [2, 7] | extension of the LA peroxidation reaction ([2]; SNAC 560 μmol/L, curve d′) | initial velocity of the LA peroxidation reaction ([2]; SNAC 560 μmol/L, curve d′) | histological characteristics of the liver ([3]; Group H, diet concomitantly with 30-day SNAC administration) | histological characteristics of the liver ([3]; Group H, diet to 60th day, SNAC from the 31st to the 60th day) | histological characteristics of the liver ([3]; Group MCD, diet concomitantly with 30-day SNAC administration) | histological characteristics of the liver ([3]; Group MCD, diet to 60th day, SNAC from the 31st to the 60th day) | hydroperoxide concentration in the liver ([4]; group 1, oral, 1.4 mg/kg/day) [nmol/g protein] | histological characteristics of hepatic tissue [5] | body mass increase ([6]; group H (untreated 28% increase)) | body mass increase ([6]; group MCD) | extension of the LA peroxidation reaction [2, 8] | initial velocity of the LA peroxidation reaction [2, 8] | hydroperoxide concentration in the liver ([4]; group 2, oral, 7.0 mg/kg/day) [nmol/g protein] |
| --- | --- | --- | --- | --- | --- | --- | --- | --- | --- | --- | --- | --- | --- | --- | --- | --- |
| CC(=O)N[C@@H](CSN=O)C(=O)O [SNAC, S-nitroso-N-acetylcysteine] | blockage of the increase of 410 and 440 nm peaks | reduction is more accentuated | reduction is more accentuated | reduction is considerably much pronounced | reduction is considerably much pronounced | consistent with normal livers | consistent with those of normal livers | consistent with normal livers | consistent with those of normal livers | 0.3±0.1 | normal liver in the periportal zone | remarkable reduction of body mass increase | practically eliminated the body mass increase |  |  |  |
| CC(=O)N[C@@H](CS)C(=O)O [NAC, N-acetylcysteine, reference compound] |  |  |  |  |  |  |  |  |  |  |  |  |  | reduced the extension | reduced the extension and velocity | 0.7±0.2 |
